This is an account of results in ChEMBL document CHEMBL1146678, “Inhibitors of multidrug resistance (MDR) have affinity for MDR substrates” (Bioorg Med Chem Lett, 2004).

Calls of active or inactive are those of the source. No cut-off for these calls is given here. Numbered stars: 1 amine (or outer) side, 2 acyl side, 3 side chain; on linkers, the order of the positions; unused ones are H or OH. Bridge positions count the residues as written; N and C are the ends. Square brackets hold non-standard residues; d marks the D form. Peptide text beside a SMILES is read from it. I, II: the chains in the order shown. Actinocin(9to1) = Cc1c2oc3c(C)ccc(C(=O)[*:1])c3nc-2c(C(=O)[*:2])c(N)c1=O; NMeV = CN[C@H](C(=O)O)C(C)C; Sar = CNCC(=O)O

The test system of test [1] is NCI-H69. Kind of test: Approximate percentage for level of inhibition of cell growth in presence and absence of inhibitor (Value of drug + Clofazimine / Value of drug). The test is classed as functional.
Test [2] has as its system NCI-H69. Nature of the test: Approximate percentage for level of inhibition of cell growth in presence and absence of inhibitor (Value of drug + alpha Tochoferol / Value of drug). The test is classed as functional.
In test [3] the test system is A549. Nature of the test: Synergism with sulindac in A549 cells. The test is classed as functional.
The test system of test [4] is NCI-H69. Nature of the test: Approximate percentage for level of inhibition of cell growth in presence and absence of inhibitor (Value of drug + Verapamil / Value of drug). The test is classed as functional.
Test [5] concerns NCI-H69. Nature of the test: Approximate percentage for level of inhibition of cell growth in presence and absence of inhibitor (Value of drug + GG918 / Value of drug). It counts as functional.
For test [6], the system named is DLKP cell line. Kind of test: Synergism with sulindac in DLKP cells. It counts as functional.
The subject of test [7] is DLKP cell line. Kind of test: Synergism with tolmedin in DLKP cells. The test is classed as functional.
The subject of test [8] is A549. Nature of the test: Synergism with indomethacin in A549 cells. It counts as functional.
Test [9] deals with A549. Kind of test: Synergism with tolmetin in A549 cells. The test is classed as functional.
Test [10] in a line: Relative inhibition (IC50) in presence and absence of reserpine. It counts as functional.
Test [11] deals with NCI-H69. Nature of the test: Approximate percentage for level of inhibition of cell growth in presence and absence of inhibitor (Value of drug + B669 / Value of drug). The test is classed as functional.
In test [12] the test system is NCI-H69. Nature of the test: Percentage inhibition of cell growth in the presence of compound and in the absence of […] in H69/LX4 cells with clofazimine MDR inhibitor. The test is classed as functional.
Test [13] can be described thus: Fold reduction in minimum inhibitory concentration of antibiotic in presence of GG918. The test is classed as functional.
Test [14] in a line: Fold reduction in minimum inhibitory concentration of antibiotic in presence of Reserpine. It counts as functional.
Test [15] deals with NCI-H69. Nature of the test: Percentage inhibition of cell growth in the presence of compound in H69/LX4 cells with verapamil as inhibitor; reversal of inhibition. The test is classed as functional, cell-based.
The test system of test [16] is NCI-H69. Nature of the test: Percentage inhibition of cell growth in the presence of compound in H69/LX4 cells with as GG918 inhibitor; reversal of inhibition. It counts as functional, cell-based.
Test [17] has as its system NCI-H69. Nature of the test: Percentage inhibition of cell growth in the presence of compound in H69/LX4 cells with Clofazemine as inhibitor; reversal of inhibition. The test is classed as functional, cell-based.
Test [18] concerns NCI-H69. Kind of test: Percentage inhibition of cell growth in the presence of compound in H69/LX4 cells with B669 as inhibitor; reversal of inhibition. The test is classed as functional, cell-based.
The nature of test [19]: Inhibitory concentration in presence of MDR inhibitor XR-9576. The test is classed as functional.
Test [20] deals with DLKP cell line. Nature of the test: Antagonism of sulindac in DLKP cells. It counts as functional.
A short description of test [21]: Inhibitory activity in presence of VX-710 inhibitor; successful in clinical trials. It counts as functional.
Test [22] concerns A549. Kind of test: Antagonism of sulindac in A549 cells. It counts as functional.
Test [23] concerns DLKP cell line. Nature of the test: Antagonism of indomethacin in DLKP cells. The test is classed as functional.
Test [24] has as its system A549. Nature of the test: Antagonism of indomethacin in A549 cells. It counts as functional.
Test [25] has as its system A549. Nature of the test: Antagonism of tolmetin in A549 cells. It counts as functional.
The nature of test [26]: Relative resistance is the ratio of IC50 values of drug with JTV-519 to that without the reversing agent. It counts as functional.
Test [27] is described as follows: Dose modifying factor expressed as the ratio of IC50 for the chemotherapy drug to IC50 for drug + GG918; Range = 1.0-23. The test is classed as functional.
Test [28] can be described thus: Dose modifying factor expressed as the ratio of IC50 for the chemotherapy drug to IC50 for drug + GG918; Range = 1.2-1850. It counts as functional.
Another test deals with Lycopus europaeus. Nature of the test: Inhibitory activity against Lycopus europeus; no inhibitory activity. It counts as functional, organism-based.
A short description of test [29]: Fold reduction in fluorescence in presence and absence of MC-002595 at 128 mg/mL. It counts as functional.
The subject of test [30] is DLKP cell line. Nature of the test: Synergism with indomethacin in DLKP cells. The test is classed as functional.

`COc1cccc2c1C(=O)c1c(O)c3c(c(O)c1C2=O)C[C@@](O)(C(=O)CO)C[C@@H]3O[C@H]1C[C@H](N)[C@H](O)[C@H](C)O1` [DOXORUBICIN]: the Reduction in the test on NCI-H69 [1] is reported as roughly 40%; with NCI-H69 [2], 0%; in the test with NCI-H69 [4], roughly 33%; with NCI-H69 [5], roughly 58%; in the test on NCI-H69 [11], roughly 31%. Further, the Combination_index in the test with A549 [3] is recorded as 0.368; with DLKP cell line [6], 0.449; with DLKP cell line [7] it was 0.467; in the test with A549 [8] it was 0.251; in the test on A549 [9] it was 0.357. The compound also showed a Fold increase in test [10] of 2.9.

Take `CC[C@]1(O)C[C@@H]2CN(CCc3c([nH]c4ccccc34)[C@@](C(=O)OC)(c3cc4c(cc3OC)N(C)[C@H]3[C@@](O)(C(=O)OC)[C@H](OC(C)=O)[C@]5(CC)C=CCN6CC[C@]43[C@@H]65)C2)C1` [VINBLASTINE]: the figures for the Reduction in the test on NCI-H69 [2], in the test with NCI-H69 [4] and with NCI-H69 [12] were roughly 95%, roughly 88% and roughly 94%, respectively. The compound further came in with a Fold increase in test [10] of 8.

With `O=C(O)c1cn(C2CC2)c2cc(N3CCNCC3)c(F)cc2c1=O`, the Fold reduction in [13] and in [14] was 8 in each case.

In the case of `Cc1c(C)c2c(c(C)c1O)CC[C@@](C)(CCC[C@H](C)CCC[C@H](C)CCCC(C)C)O2`, the inhibition entry in the test on NCI-H69 [15], in the test on NCI-H69 [16], with NCI-H69 [17] and with NCI-H69 [18] was “reversal of inhibition” in each case.

One may read the IC50 as the concentration that gives 50% inhibition. As to `COc1cccc2c1C(=O)c1c(O)c3c(c(O)c1C2=O)C[C@@](O)(C(C)=O)C[C@@H]3O[C@H]1C[C@H](N)[C@H](O)[C@H](C)O1` [DAUNORUBICIN], the IC50 in test [19] was 38.2 nM.

On to `CC(=O)O[C@H]1C(=O)[C@@]2(C)[C@H]([C@H](OC(=O)c3ccccc3)[C@]3(O)C[C@H](OC(=O)[C@H](O)[C@@H](NC(=O)c4ccccc4)c4ccccc4)C(C)=C1C3(C)C)[C@]1(OC(C)=O)CO[C@@H]1C[C@@H]2O` [PACLITAXEL], for which the Combination_index in the test with DLKP cell line [20] is on record as 1.233; with A549 [22], 1.539; with DLKP cell line [23], 1.227; in the test on A549 [24], 2.234; in the test with A549 [25], 1.349. Further, in test [21], the inhibition result is “Active”.

Regarding `CC[C@]1(O)C[C@H]2CN(CCc3c([nH]c4ccccc34)[C@@](C(=O)OC)(c3cc4c(cc3OC)N(C=O)[C@H]3[C@@](O)(C(=O)OC)[C@H](OC(C)=O)[C@]5(CC)C=CCN6CC[C@]43[C@@H]65)C2)C1` [VINCRISTINE], the Combination_index in the test with A549 [3] amounted to 0.462; in the test on DLKP cell line [6] it was 0.241; in the test on DLKP cell line [7] it was 0.593; with A549 [8], 0.301. Besides, the Ratio in [26] stood at 3.7.

For the compound `CC[C@@]1(O)C(=O)OCc2c1cc1n(c2=O)Cc2cc3c(CN(C)C)c(O)ccc3nc2-1`, the Ratio in [27] came out at 1.

Consider `O=C1c2c(O)ccc(O)c2C(=O)c2c(NCCNCCO)ccc(NCCNCCO)c21`, for which, in [28], the Ratio is 1.2.

`Cc1c2oc3c(C)ccc(C(=O)N[C@@H]4C(=O)N[C@H](C(C)C)C(=O)N5CCC[C@H]5C(=O)N(C)CC(=O)N(C)[C@@H](C(C)C)C(=O)O[C@@H]4C)c3nc-2c(C(=O)N[C@@H]2C(=O)N[C@H](C(C)C)C(=O)N3CCC[C@H]3C(=O)N(C)CC(=O)N(C)[C@@H](C(C)C)C(=O)O[C@@H]2C)c(N)c1=O` (I: T[dV]P[Sar][NMeV] / II: T[dV]P[Sar][NMeV]; ester I:1-I:C, II:1-II:C; linker I:N-II:N via Actinocin(9to1)): the Ratio in [26] was 3.

In the case of `Cc1ccc(NC(=O)c2ccc(CN3CCN(C)CC3)cc2)cc1Nc1nccc(-c2cccnc2)n1`, the Ratio in test [26] was determined as 3.1.

Take `CCn1cc(C(=O)O)c(=O)c2cc(F)c(N3CCNCC3)cc21`: the inhibition entry in the test with Lycopus europaeus was “inactive”. Further, the Fold reduction in [13] came to 8; in [14] it was 4.

In test [29], `c1ccc(Nc2cccc3ccccc23)cc1` gave a Fold reduction of 2.3.

On to `COc1cc([C@@H]2c3cc4c(cc3[C@@H](O[C@@H]3O[C@@H]5CO[C@@H](C)O[C@H]5[C@H](O)[C@H]3O)[C@H]3COC(=O)[C@H]23)OCO4)cc(OC)c1O` [ETOPOSIDE], for which the Combination_index in the test on DLKP cell line [30] is on record as 0.534; in the test with A549 [3], 0.681; with DLKP cell line [6], 0.463; in the test on DLKP cell line [7], 0.745; in the test on A549 [8], 0.916. The Ratio in [26] amounted to 2.6.

On to `COc1c(N2C[C@@H]3CCCN[C@@H]3C2)c(F)cc2c(=O)c(C(=O)O)cn(C3CC3)c12`, for which the Fold reduction in test [13] came to 0; in test [14], 2.
